Here are results for 14 molecules from patent US5869448A, “Cyclic CS-1 peptidomimetics, compositions and methods of using same” (Cytel Corporation, priority 1995, dated 1999).

Positions of bridges follow the written chain, without caps; N, C: chain ends. Non-standard residues stand in square brackets, D forms with d. Residues, ends and D or L forms follow the SMILES beside them. No end group written: not given here. *: point of attachment. Pen = CC(C)(S)[C@H](N)C(=O)O; PhAc = O=C(Cc1ccccc1)*

For one test, the target named is T1, VLA-4/CS-1 (Homo sapiens, UniProt P05556+P13612).
T1 construct: inflammatory cells that contain the VLA-4 receptor [Jurkat cells; host or cells: Jurkat (human T lymphoblastic line)
T1 sequence (P13612 34-1032): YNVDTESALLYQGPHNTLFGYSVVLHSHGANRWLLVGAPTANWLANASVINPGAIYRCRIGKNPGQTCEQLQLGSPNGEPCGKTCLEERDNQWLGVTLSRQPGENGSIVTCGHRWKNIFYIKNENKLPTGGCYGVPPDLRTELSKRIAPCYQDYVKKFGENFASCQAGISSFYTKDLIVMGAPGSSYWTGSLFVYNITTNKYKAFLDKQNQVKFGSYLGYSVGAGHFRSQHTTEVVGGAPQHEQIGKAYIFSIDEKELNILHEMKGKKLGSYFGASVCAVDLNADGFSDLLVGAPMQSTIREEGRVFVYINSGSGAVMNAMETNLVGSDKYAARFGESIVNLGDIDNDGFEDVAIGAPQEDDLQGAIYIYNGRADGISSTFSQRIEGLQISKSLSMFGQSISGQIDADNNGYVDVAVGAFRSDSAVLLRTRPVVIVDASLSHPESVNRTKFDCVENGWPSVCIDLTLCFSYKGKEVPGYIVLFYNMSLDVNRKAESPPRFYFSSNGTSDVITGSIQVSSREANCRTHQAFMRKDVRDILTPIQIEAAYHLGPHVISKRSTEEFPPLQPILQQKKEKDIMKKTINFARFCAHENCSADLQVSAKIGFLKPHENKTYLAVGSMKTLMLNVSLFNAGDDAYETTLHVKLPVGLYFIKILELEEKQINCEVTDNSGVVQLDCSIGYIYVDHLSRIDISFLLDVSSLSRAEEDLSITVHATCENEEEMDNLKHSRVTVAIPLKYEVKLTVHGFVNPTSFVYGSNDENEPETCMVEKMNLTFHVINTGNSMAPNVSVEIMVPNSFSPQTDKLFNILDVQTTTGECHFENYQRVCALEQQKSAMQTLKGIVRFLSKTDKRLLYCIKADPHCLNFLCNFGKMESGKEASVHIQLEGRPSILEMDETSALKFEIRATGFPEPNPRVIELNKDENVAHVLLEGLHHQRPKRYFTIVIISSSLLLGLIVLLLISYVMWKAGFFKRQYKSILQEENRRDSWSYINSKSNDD
T1 sequence (P05556 21-798): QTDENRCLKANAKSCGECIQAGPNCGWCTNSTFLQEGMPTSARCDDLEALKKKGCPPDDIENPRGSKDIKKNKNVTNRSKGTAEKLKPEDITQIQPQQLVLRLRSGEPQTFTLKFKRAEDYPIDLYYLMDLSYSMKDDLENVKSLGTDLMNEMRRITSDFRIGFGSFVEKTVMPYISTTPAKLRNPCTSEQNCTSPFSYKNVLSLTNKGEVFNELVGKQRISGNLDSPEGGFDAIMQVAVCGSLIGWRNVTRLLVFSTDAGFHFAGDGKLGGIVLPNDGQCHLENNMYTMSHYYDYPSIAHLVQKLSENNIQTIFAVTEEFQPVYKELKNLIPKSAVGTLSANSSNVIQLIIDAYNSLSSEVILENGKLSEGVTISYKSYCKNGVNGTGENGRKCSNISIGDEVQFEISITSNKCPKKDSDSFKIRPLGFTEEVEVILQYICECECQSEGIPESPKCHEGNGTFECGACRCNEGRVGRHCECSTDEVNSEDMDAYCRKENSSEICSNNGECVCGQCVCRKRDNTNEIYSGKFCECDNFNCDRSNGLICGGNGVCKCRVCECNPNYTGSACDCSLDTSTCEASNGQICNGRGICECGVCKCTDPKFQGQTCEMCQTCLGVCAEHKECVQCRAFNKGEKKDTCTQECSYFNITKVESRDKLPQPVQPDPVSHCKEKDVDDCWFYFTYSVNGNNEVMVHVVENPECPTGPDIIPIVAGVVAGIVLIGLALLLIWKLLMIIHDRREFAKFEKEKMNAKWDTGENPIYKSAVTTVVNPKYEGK
The experiment in a line: In vitro inhibition of binding of 51Cr-labeled Jurkat cells to solid phase-bound CS-1 peptide. In kind it is cell-based. The conditions noted are these: Table 1; normalized IC50, standard peptide of SEQ ID NO:6 = 1. How it is done: Binding inhibition is measured here as a concentration of peptide that inhibits one-half the binding between a standard number of Jurkat cells and a standard amount of CS-1 peptide bound to the surface of a microtiter plate well. Those concentrations are conveniently expressed as IC50 values, smaller numbers indicating a lower concentration required to inhibit 50 percent binding and therefore greater potency. Further specifics of this assay are provided hereinafter.
Jurkat cells (ATCC TIB 152), a human T lymphoblastic line, labeled with ^51 chromium were used to assay in vitro binding inhibition provided by various peptides discussed herein.
The plates were prepared as follows: The 25-mer CS-1 peptide (SEQ ID NO:5) dissolved at 0.5-1 μg/ml in a buffer of 0.1M NaHCO3 at pH 9.5 that also contained 10 μg/ml of bovine serum albumin (BSA) or a conjugate of the CS-1 peptide linked to ovalbumin (CS-1-OVA) dissolved at 1-2.5 μg/ml in the same buffer was used as the substrate. Each well of the microtiter plates was coated with 50 μl of substrate or buffer alone for controls. The wells were permitted to dry out completely and were then rinsed twice with PBS at pH 7.4. Non-specific binding sites of each well were then blocked using 200 μl per well of RPMI/1 percent BSA for two hours at room temperature. Both solid phase-affixed substrates provided similar results.
Jurkat cells (3-5×10^6 cells) were placed into a 15 ml FALCON™ round-bottom tube with a cap. The tube was centrifuged, and the extra medium was then removed.
Two hundred microliters of a ^51 Cr labeling solution were added to the centrifuged cells and maintained in contact with the cells for 90-120 minutes in a warm room. This procedure typically provides about 50,000-100,000 cpm/well with about 80-100 percent cell viability. Longer contact times provide a greater amount of labeling but lower cell viability.
The labeled cells were washed with (i) complete medium, (ii) 1 mM EDTA/PBS and then (iii) RPM1/1 percent BSA free of serum components. The cells were centrifuged after each washing. The cells were finally resuspended in serum-free RPMI/1 percent BSA at a concentration of 1×10^6 viable cells/ml, which provides a concentration that is diluted by one-half in the assay.
Cyclic inhibitor peptides were prepared as stock solutions at 20 mg/ml in DMSO in 1.5 ml cryogenic screwcap vials, and were stored at -70° C. Using FLOW™ round-bottom or V-bottom microtiter plates, the inhibitor peptides were prepared at twice the assay concentration in RPMI/1 percent BSA at 60 μl/well.
Four initial dilutions were typically used.
The ^51 Cr-labeled cells (1×10^6 cells at 60 μl/well) were then admixed with the diluted cyclic peptide solutions. The admixtures were maintained at room temperature (about 22° C.) for 30 minutes.
One hundred microliters of each inhibitor peptide/cell admixture were transferred to the substrate-coated wells. This was done in triplicate for each dilution. The resulting plates were incubated for 30 minutes at 37° C. and then washed gently three times with RPMI/1 percent BSA at 200 μl/well. Binding was observed microscopically, particularly after the second wash.
The bound cells were then lysed by the addition of a 0.5 percent solution of sodium dodecylsulfate in water at 100 μl/well. The resulting solutions were then processed for counting and calculation of IC50 values following usual procedures. Appropriate positive and negative controls were used with each plate so that the results of separate assays could be normalized and compared.
The potency data of Table 1 and Table 2 are so normalized. The absolute IC50 value for the peptide of SEQ ID NO:7 is 0.3 μM.
Consider ILDVPILDVP-NH2 [compound 26], for which the “Relative Potency” value is given as 2.

Turning to `CC(C)C[C@@H]1NC(=O)[C@H](Cc2ccccc2)NC(=O)[C@H](CCC(=O)O)NC(=O)[C@@H]2CCCN2C(=O)[C@@H](N)CSSC[C@@H](C(N)=O)NC(=O)[C@@H]2CCCN2C(=O)[C@H](Cc2ccccc2)NC(=O)[C@H](CC(=O)O)NC1=O` [compound 16] (H-CPEFLDFPC-NH2; disulfide 1-9), the “Relative Potency” value worked out at 31. `CC(=O)N[C@@H](Cc1ccccc1)C(=O)N[C@@H](CS)C(=O)N[C@@H](CC(=O)O)C(=O)N[C@@H](Cc1ccccc1)C(=O)N[C@@H](CS)C(N)=O` [compound 18] (Ac-FCDFC-NH2): the “Relative Potency” value was determined as 41.

Take `CC(=O)N[C@@H](Cc1ccccc1)C(=O)N[C@H]1CSSC[C@@H](C(=O)N2CCC[C@H]2C(N)=O)NC(=O)[C@H](CC(=O)O)NC1=O` [compound 29] (Ac-FCDCP-NH2; disulfide 2-4): the “Relative Potency” value is 1. As for `CC(C)C[C@@H]1NC(=O)[C@H](Cc2ccccc2)NC(=O)[C@H](CCC(=O)O)NC(=O)[C@@H]2CCCN2C(=O)CNC(=O)[C@@H](N)CSSC[C@@H](C(N)=O)NC(=O)[C@H](Cc2ccccc2)NC(=O)[C@H](CC(=O)O)NC1=O` [compound 23] (H-CGPEFLDFC-NH2; disulfide 1-9), the “Relative Potency” value is reported as 9. Same read-out and setting: next, `CC(=O)N[C@@H](Cc1ccccc1)C(=O)N[C@H]1CSSC[C@@H](C(N)=O)NC(=O)[C@H](Cc2ccccc2)NC(=O)[C@H](CC(=O)O)NC1=O` [compound 17] (Ac-FCDFC-NH2; disulfide 2-5): 53; `CC(C)C[C@@H]1NC(=O)[C@H](Cc2ccccc2)NC(=O)[C@H](CCC(=O)O)NC(=O)[C@@H]2CCCN2C(=O)[C@@H](N)CSSC[C@@H](C(N)=O)NC(=O)[C@H](CO)NC(=O)[C@@H]2CCCN2C(=O)[C@H](Cc2ccccc2)NC(=O)[C@H](CC(=O)O)NC1=O` [compound 19] (H-CPEFLDFPSC-NH2; disulfide 1-10): 6. Same read-out and setting: next, `NC(=O)[C@@H]1CCCN1C(=O)[C@@H]1CSSC[C@H](NC(=O)[C@@H](N)Cc2ccccc2)C(=O)N[C@@H](CC(=O)O)C(=O)N1` [compound 30] (H-FCDCP-NH2; disulfide 2-4): < 1; `CC1(C)SSC[C@@H](C(N)=O)NC(=O)[C@H](Cc2ccccc2)NC(=O)[C@H](CC(=O)O)NC(=O)[C@H]1NC(=O)Cc1ccccc1` [compound 14] (PhAc-[Pen]DFC-NH2; disulfide 1-4): 94.

`CC(C)C[C@H](N)C(=O)N[C@@H](CC(=O)O)C(=O)N[C@@H](Cc1ccccc1)C(N)=O` [LDF--NH2] (H-Leu-Asp-Phe-NH2): the “Relative Potency” value amounted to 0. Still for that read-out and setting: the result for `CC(C)C[C@@H]1NC(=O)[C@H](Cc2ccccc2)NC(=O)[C@H](CCC(=O)O)NC(=O)[C@@H](N)CSSC[C@@H](C(N)=O)NC(=O)[C@@H]2CCCN2C(=O)[C@H](Cc2ccccc2)NC(=O)[C@H](CC(=O)O)NC1=O` [compound 20] (H-CEFLDFPC-NH2; disulfide 1-8) reads 19.

Still in this test, the particulars now being: Table 2; normalized, relative to standard peptide of SEQ ID NO:6.
For `CC(C)C[C@@H]1NC(=O)[C@H](Cc2ccccc2)NC(=O)[C@@H](N)CSSC[C@@H](C(N)=O)NC(=O)[C@H]([C@@H](C)O)NC(=O)[C@H](CO)NC(=O)[C@@H]2CCCN2C(=O)[C@H](Cc2ccccc2)NC(=O)[C@H](CC(=O)O)NC1=O` [SEQ ID NO:15, CFLDFPSTC--NH2] (H-CFLDFPSTC-NH2; disulfide 1-9), the “Relative Potency” value is reported as 81.4.

Turning to `CC(C)C[C@@H]1NC(=O)[C@H](Cc2ccccc2)NC(=O)[C@@H](N)CSSC[C@@H](C(=O)N2CCC[C@H]2C(N)=O)NC(=O)[C@H](CC(=O)O)NC1=O` (H-CFLDCP-NH2; disulfide 1-5), the “Relative Potency” value turned out to be 0.

The test is the same for the next values; noted with them: times more potent than standard 10-mer.
In the case of `CC(C)C[C@@H]1NC(=O)[C@H](Cc2ccccc2)NC(=O)[C@@H](N)CSSC[C@@H](C(N)=O)NC(=O)[C@@H]2CCCN2C(=O)[C@H](Cc2ccccc2)NC(=O)[C@H](CC(=O)O)NC1=O` [SEQ ID NO:10, CFLDFPC--NH2] (H-CFLDFPC-NH2; disulfide 1-7), the “inhibition potency relative to the Standard 10-mer of SEQ ID NO:6” value is recorded as “about 253”.
